Experimental data from patent US9309222B2, “Phenyl linked quinolinyl modulators of RORγt” (Janssen Pharmaceutica NV, priority 2012, dated 2016).
pIC50, pKd: −log10 of the molar value. Counter-ions that a name gives are not always drawn.

What was measured:
[1] = system: IL-17 production by CD4 T cells; test: Human Th17 assay (IL-17 production by CD4 T cells under Th17 differentiation conditions); format: cell-based; conditions: IL-17 in supernatant after 3 days
Procedure: The human Th17 assay tests the effect of RORγt modulatory compounds on IL-17 production by CD4 T cells under conditions which favor Th17 differentiation. Total CD4^+ T cells were isolated from the peripheral blood mononuclear cells (PBMC) of healthy donors using a CD4^+ T cell isolation kit II, following the manufacturer's instructions (Miltenyi Biotec). […] 50 μL of compound at titrated concentrations in DMSO were added into each well at final DMSO concentration at 0.2%. Cells were incubated for 1 hour, then 50 μL of Th17 cell differentiation medium was added to each well. The final concentrations of antibodies and cytokines (R&D Systems) in differentiation medium were: 3×10^6/mL anti-CD3/CD28 beads (prepared using human T cell activation/expansion kit, Miltenyi Biotec), 10 μg/mL anti-IL4, 10 μg/mL anti-IFNγ, 10 ng/mL IL113, 10 ng/mL IL23, 50 ng/mL IL6, 3 ng/mL TGFβ and 20 U/mL IL2. Cells were cultured at 37° C. and 5% CO2 for 3 days. Supernatants were collected and the accumulated IL-17 in culture was measured by using MULTI-SPOT® Cytokine Plate following manufacture's instruction (Meso Scale Discovery). The plate was read using Sector Imager 6000, and IL-17 concentration was extrapolated from the standard curve. The IC50s were determined by GraphPad.

[2] = target: T1, human RORγt ligand binding domain (RORγt LBD) (Homo sapiens, UniProt P51449); test: RORγt ThermoFluor assay (thermal shift, ligand binding affinity); conditions: estimated from concentration response of thermal shift
T1 construct: His-tag (N); TurboTEV protease cleavage site (ENLYFQG) (N); made in house; host or cells: E. coli (pHIS1, modified pET vector)
T1 sequence (P51449 with tags, fused parts or gaps): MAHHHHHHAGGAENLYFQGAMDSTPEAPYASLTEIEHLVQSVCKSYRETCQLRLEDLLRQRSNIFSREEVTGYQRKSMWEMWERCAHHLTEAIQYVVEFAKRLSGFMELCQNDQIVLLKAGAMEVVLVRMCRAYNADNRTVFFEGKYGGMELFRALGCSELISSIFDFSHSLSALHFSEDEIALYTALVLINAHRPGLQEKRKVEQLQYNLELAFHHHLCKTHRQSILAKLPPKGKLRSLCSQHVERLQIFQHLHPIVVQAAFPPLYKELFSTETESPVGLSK
Summary of the method: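 Thermal shift of 0.065 mg/mL RORγt with 60 μM 1,8-ANS in 100 mM Hepes pH 7.0, 10 mM NaCl, 2.5 mM GSH, 0.002% Tween-20. Compounds in 1:2 series from 10 mM DMSO stock. Dye fluorescence (500 nm emission) tracked versus temperature; ΔTm used to derive KD.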

human RORγt LBD = target: T2, human RORγt LBD (Homo sapiens, UniProt P51449); test: RORγt reporter assay (GAL4-RORγt LBD luciferase in HEK293T cells); format: cell-based; conditions: for pIC50: HEK293T cells, 24 hours compound treatment; for inhibition at 6 µM: HEK-293T, read-out: RORγt reporter Assay, % inhibition @ 6 μM, HEK293T cells, 6 μM compound
T2 construct: expressed in transfected cells
T2 sequence (P51449 258-518): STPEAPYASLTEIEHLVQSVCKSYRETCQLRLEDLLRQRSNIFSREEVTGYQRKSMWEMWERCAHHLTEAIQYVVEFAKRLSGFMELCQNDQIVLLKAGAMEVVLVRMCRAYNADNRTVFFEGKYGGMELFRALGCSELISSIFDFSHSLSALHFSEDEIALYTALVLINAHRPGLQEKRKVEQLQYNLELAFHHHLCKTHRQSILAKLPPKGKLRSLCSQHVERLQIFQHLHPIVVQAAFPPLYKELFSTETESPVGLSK
Summary of the method: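 Read-out is the firefly-to-renilla luciferase ratio versus compound concentration, after 24 h compound exposure of cells in phenol-red-free DMEM/5% lipid-reduced FCS. Cells were HEK293T bulk-transfected with a GAL4-responsive firefly reporter (pGL4.31) and GAL4 DBD–wild-type human RORγt LBD fusion (pBIND, renilla as transfection/viability control).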

Compound	pIC50 ([1]; Homo sapiens, CD4+ T, 72 h)	pIC50 [1]	pKd [2]	pIC50 (human RORγt LBD)	inhibition at 6 µM (human RORγt LBD) [%]
Cn1cncc1C(O)(c1ccc(Cl)cc1)c1ccc2nc(Cl)c(-c3ccccc3)c(Cl)c2c1 (racemic) [Example 119a, (4-Chlorophenyl)(2,4-dichloro-3-phenylquinolin-6-yl)(1-methyl-1H-imidazol-5-yl)methanol]	5.74	–	–	–	–
Cn1cncc1C(O)(c1ccc(Cl)cc1)c1ccc2nc(Cl)c(-c3ccccc3)c(Cl)c2c1 (single isomer, unassigned) [Example 119b, (4-Chlorophenyl)(2,4-dichloro-3-phenylquinolin-6-yl)(1-methyl-1H-imidazol-5-yl)methanol]	–	4.82	–	–	–
Cn1cncc1C(O)(c1ccc(Cl)cc1)c1ccc2nc(Cl)c(-c3ccccc3)c(Cl)c2c1 (single isomer, unassigned) [Example 119c, (4-Chlorophenyl)(2,4-dichloro-3-phenylquinolin-6-yl)(1-methyl-1H-imidazol-5-yl)methanol]	6.15	–	–	–	–
N#Cc1nc2ccc(C(O)(c3ccc(C(F)(F)F)nc3)c3cccc(Cl)c3)cc2c(C#N)c1-c1ccccc1 (stereo not drawn) [Example 114, 6-{(3-Chlorophenyl)(hydroxy) [6-(trifluoromethyl)pyridin-3-yl]methyl}-3-phenylquinoline-2,4-dicarbonitrile]	–	–	6.21	6.13	104
Cn1cncc1C(O)(c1ccc2nc(C(F)(F)F)c(-c3ccccc3)c(C#N)c2c1)c1ccccn1 (stereo not drawn) [Example 118, 6-(Hydroxy(1-methyl-1H-imidazol-5-yl)(pyridin-2-yl)methyl)-3-phenyl-2-(trifluoromethyl)quinoline-4-carbonitrile•TFA]	–	–	6.44	6.43	94
Cn1ccnc1C(O)(c1ccnnc1)c1ccc2nc(Cl)c(-c3ccccc3)c(Cl)c2c1 (stereo not drawn) [Example 121, (2,4-Dichloro-3-phenylquinolin-6-yl)(1-methyl-1H-imidazol-2-yl)(pyridazin-4-yl)methanol]	–	–	5.77	~5.70	72
Cn1ccnc1C(O)(c1ccc2nc(Cl)c(-c3ccccc3)c(Cl)c2c1)c1cnccn1 (stereo not drawn) [Example 123, (2,4-Dichloro-3-phenylquinolin-6-yl)(1-methyl-1H-imidazol-2-yl)(pyrazin-2-yl)methanol]	–	–	5.66	~5.22	70
Cn1ccnc1C(O)(c1cncnc1)c1ccc2nc(Cl)c(-c3ccccc3)c(Cl)c2c1 (stereo not drawn) [Example 125, (2,4-Dichloro-3-phenylquinolin-6-yl)(1-methyl-1H-imidazol-2-yl)(pyrimidin-5-yl)methanol]	–	–	6.19	6.00	66
Cn1cncc1C(O)(c1ccnnc1)c1ccc2nc(Cl)c(-c3ccccc3)c(Cl)c2c1 (stereo not drawn) [Example 126, (2,4-Dichloro-3-phenylquinolin-6-yl)(1-methyl-1H-imidazol-5-yl)(pyridazin-4-yl)methanol]	–	–	7.68	6.66	97
COC(c1ccc2nc(Cl)c(-c3ccccc3)c(Cl)c2c1)(c1cnccn1)c1cncn1C (stereo not drawn) [Example 127, 2,4-Dichloro-6-(methoxy(1-methyl-1H-imidazol-5-yl)(pyrazin-2-yl)methyl)-3-phenylquinoline•TFA]	–	–	6.00	5.80	88
Cc1noc(C)c1C(O)(c1ccc(Cl)cc1)c1ccc2nc(Cl)c(-c3ccccc3)c(Cl)c2c1 (stereo not drawn) [Example 133, (4-Chlorophenyl)(2,4-dichloro-3-phenylquinolin-6-yl)(3,5-dimethylisoxazol-4-yl)methanol•TFA]	–	–	5.82	< 5.22	41
Cn1nncc1C(O)(c1ccc(Cl)cc1)c1ccc2nc(Cl)c(-c3ccccc3)c(Cl)c2c1 (stereo not drawn) [Example 144, (4-Chlorophenyl)(2,4-dichloro-3-phenylquinolin-6-yl)(1-methyl-1H-1,2,3-triazol-5-yl)methanol]	–	–	6.59	6.28	102
Cc1nc2cc(C(O)(c3ccc4nc(Cl)c(-c5ccccc5)c(Cl)c4c3)c3cncn3C)ccc2o1 (stereo not drawn) [Example 146, (2,4-Dichloro-3-phenylquinolin-6-yl)(1-methyl-1H-imidazol-5-yl)(2-methylbenzo[d]oxazol-5-yl)methanol]	–	–	7.11	6.89	112
COCCCn1cncc1C(O)(c1ccc(Cl)cc1)c1ccc2nc(Cl)c(-c3ccccc3)c(Cl)c2c1 (stereo not drawn) [Example 147, (4-Chlorophenyl)(2,4-dichloro-3-phenylquinolin-6-yl)(1-(3-methoxypropyl)-1H-imidazol-5-yl)methanol]	–	–	5.96	5.89	97
OC(c1ccc(Cl)cc1)(c1cccnc1)c1ccc2nc(-c3cccnc3)c(-c3ccccc3)c(Cl)c2c1 (stereo not drawn) [Example 151, (4-Chloro-3-phenyl-2-(pyridin-3-yl)quinolin-6-yl)(4-chlorophenyl)(pyridin-3-yl)methanol]	–	–	5.30	5.66	85
Cn1cncc1C(O)(c1ccncc1)c1cc(F)c2nc(Cl)c(-c3ccccc3)c(Cl)c2c1 (stereo not drawn) [Example 155, (2,4-Dichloro-8-fluoro-3-phenylquinolin-6-yl)(1-methyl-1H-imidazol-5-yl)(pyridin-4-yl)methanol•TFA]	–	–	7.17	6.96	96
Cc1ccc(C(O)(c2cc(C)c3nc(Cl)c(-c4ccccc4)c(Cl)c3c2)c2cncn2C)cn1 (stereo not drawn) [Example 156, (2,4-Dichloro-8-methyl-3-phenylquinolin-6-yl)(1-methyl-1H-imidazol-5-yl)(6-methylpyridin-3-yl)methanol•TFA]	–	–	7.24	6.49	98
Cn1cncc1C(O)(c1ccncc1)c1ccc2nc(Cl)c(-c3ccccc3)c(Cl)c2c1F (stereo not drawn) [Example 162, (2,4-Dichloro-5-fluoro-3-phenylquinolin-6-yl)(1-methyl-1H-imidazol-5-yl)(pyridin-4-yl)methanol•TFA]	–	–	6.70	6.04	92
Cn1cncc1C(O)(c1ccc(Cl)cc1)c1ccc2nc(Cl)c(-c3ccccc3)c(Cl)c2c1F (stereo not drawn) [Example 163, (4-Chlorophenyl)(2,4-dichloro-5-fluoro-3-phenylquinolin-6-yl)(1-methyl-1H-imidazol-5-yl)methanol•TFA]	–	–	5.92	5.85	87
OC(c1ccccc1)(c1ccc2nc(C(F)(F)F)c(-c3ccccc3)c(C(F)(F)F)c2c1)C1CCNCC1 (stereo not drawn) [Example 167, Phenyl(3-phenyl-2,4-bis(trifluoromethyl)quinolin-6-yl)(piperidin-4-yl)methanol•TFA]	–	–	6.40	< 5.22	62
CCN1CCC(C(O)(c2ccccc2)c2ccc3nc(C(F)(F)F)c(-c4ccccc4)c(C(F)(F)F)c3c2)CC1 (stereo not drawn) [Example 168, (1-Ethylpiperidin-4-yl)(phenyl)(3-phenyl-2,4-bis(trifluoromethyl)quinolin-6-yl)methanol•TFA]	–	–	5.48	~5.22	71
Cn1cncc1C(O)(c1ccc(C(F)(F)F)nc1)c1ccc2nc(C(F)(F)F)c(-c3ccccc3)c(Cl)c2c1 (stereo not drawn) [Example 172, (4-Chloro-3-phenyl-2-(trifluoromethyl)quinolin-6-yl)(1-methyl-1H-imidazol-5-yl)(6-(trifluoromethyl)pyridin-3-yl)methanol•TFA]	–	–	8.34	6.85	96
